Test [1] deals with OGA in HEK293 cells inducible for P301L mutant human Tau (isoform 2N4R). As to the kind of experiment: OGA cellular assay: immunocytochemical detection of O-GlcNAcylated proteins (CTD110.6 antibody) after 6 h incubation. The settings on record: for Emax / EC50: Homo sapiens, HEK293, 6 h; for Emax / Cellular Emax (%): maximum = Thiamet G 200 uM; for EC50: read-out: Cellular hOGA, pEC50 (converted). It is filed as cell-based. The method, then: HEK293 cells inducible for P301L mutant human Tau (isoform 2N4R) were established at Janssen. Thiamet-G was used for both plate validation (high control) and as reference compound (reference EC50 assay validation). OGA inhibition is evaluated through the immunocytochemical (ICC) detection of O-GlcNAcylated proteins by the use of a monoclonal antibody (CTD110.6; Cell Signaling, #9875) detecting O-GlcNAcylated residues as previoulsy described (Dorfmueller et al. 2010 Chemistry & biology, 17:1250). Inhibition of OGA will result in an increase of O-GlcNAcylated protein levels resulting in an increased signal in the experiment. Cell nuclei are stained with Hoechst to give a cell culture quality control and a rough estimate of immediate compounds toxicity, if any. ICC pictures are imaged with a Perkin Elmer Opera Phenix plate microscope and quantified with the provided software Perkin Elmer Harmony 4.1.
Cells were propagated in DMEM high Glucose (Sigma, # D5796) following standard procedures. 2 days before the cell assay cells are split, counted and seeded in Poly-D-Lysine (PDL) coated 96-wells (Greiner, #655946) plate at a cell density of 12,000 cells per cm^2 (4,000 cells per well) in 100 μl of Assay Medium (Low Glucose medium is used to reduce basal levels of GlcNAcylation) (Park et al. 2014 The Journal of biological chemistry 289:13519). At the day of compound test medium from assay plates was removed and replenished with 90 μl of fresh Assay Medium. 10 μl of compounds at a 10 fold final concentration were added to the wells. Plates were centrifuged shortly before incubation in the cell incubator for 6 hours. DMSO concentration was set to 0.2%. Medium is discarded by applying vacuum. For staining of cells medium was removed and cells washed once with 100 μl D-PBS (Sigma, # D8537). From next step onwards unless other stated assay volume was always 50 μl and incubation was performed without agitation and at room temperature. Cells were fixed in 50 μl of a 4% paraformaldehyde (PFA, Alpha aesar, #043368) PBS solution for 15 minutes at room temperature. […] Before analysis samples were washed 2 times manually for 5 minutes in ICC base buffer.
Imaging is performed using Perkin Elmer Phenix Opera using a water 20× objective and recording 9 fields per well. Intensity readout at 488 nm is used as a measure of O-GlcNAcylation level of total proteins in wells. To assess potential toxicity of compounds nuclei were counted using the Hoechst staining. IC50-values are calculated using parametric non-linear regression model fitting. As a maximum inhibition Thiamet G at a 200 uM concentration is present on each plate. In addition, a concentration response of Thiamet G is calculated on each plate.

Test [2] deals with T1, recombinant human Meningioma Expressed Antigen 5 (MGEA5), also referred to as O-GlcNAcase (OGA) (Homo sapiens, UniProt O60502).
T1 construct: Full length OGA enzyme was purchased at OriGene (cat # TP322411); purchased OriGene TP322411
T1 sequence (O60502 1-916): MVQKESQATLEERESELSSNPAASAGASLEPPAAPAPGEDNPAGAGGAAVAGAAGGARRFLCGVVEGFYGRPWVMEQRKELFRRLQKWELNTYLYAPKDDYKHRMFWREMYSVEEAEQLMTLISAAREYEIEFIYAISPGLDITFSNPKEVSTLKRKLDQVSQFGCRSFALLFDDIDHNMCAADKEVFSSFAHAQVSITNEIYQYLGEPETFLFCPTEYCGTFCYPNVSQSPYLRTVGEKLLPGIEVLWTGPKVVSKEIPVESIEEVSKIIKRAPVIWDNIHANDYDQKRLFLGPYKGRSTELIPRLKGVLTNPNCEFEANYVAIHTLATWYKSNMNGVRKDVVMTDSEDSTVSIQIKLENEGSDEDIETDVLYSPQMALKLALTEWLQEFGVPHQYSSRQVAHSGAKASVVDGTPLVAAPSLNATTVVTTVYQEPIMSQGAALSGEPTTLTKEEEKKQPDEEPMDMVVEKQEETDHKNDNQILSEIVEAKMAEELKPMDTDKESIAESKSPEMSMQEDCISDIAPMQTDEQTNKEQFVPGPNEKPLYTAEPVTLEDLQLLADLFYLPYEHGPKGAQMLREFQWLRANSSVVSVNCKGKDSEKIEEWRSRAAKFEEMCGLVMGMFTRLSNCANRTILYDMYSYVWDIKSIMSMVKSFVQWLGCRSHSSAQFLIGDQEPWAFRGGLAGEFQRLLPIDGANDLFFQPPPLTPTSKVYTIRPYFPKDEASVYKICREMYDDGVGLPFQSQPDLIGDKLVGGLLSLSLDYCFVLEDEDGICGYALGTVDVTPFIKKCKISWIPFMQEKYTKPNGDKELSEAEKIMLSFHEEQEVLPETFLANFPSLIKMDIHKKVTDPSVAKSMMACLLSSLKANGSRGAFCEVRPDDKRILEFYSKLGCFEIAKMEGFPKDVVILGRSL
Kind of test: OGA biochemical assay: inhibition of FM-GlcNAc hydrolysis, fluorescence; protocol A (10 nM OGA, 1 h) or protocol B (2 nM OGA, 6 h). As to conditions: Enzymatic protocol B (2 nM OGA, 6 h); for IC50: read-out: Enzymatic hOGA, pIC50 (converted). The text has this: The assay is based on the inhibition of the hydrolysis of fluorescein mono-3-D-N-Acetyl-Glucosamine (FM-GlcNAc) (Mariappa et al. 2015, Biochem J 470:255) by the recombinant human Meningioma Expressed Antigen 5 (MGEA5), also referred to as O-GlcNAcase (OGA). The hydrolysis FM-GlcNAc (Marker Gene technologies, cat # M1485) results in the formation of ß-D-N-glucosamineacetate and fluorescein. The fluorescence of the latter can be measured at excitation wavelength 485 nm and emission wavelength 538 nm. An increase in enzyme activity results in an increase in fluorescence signal. Full length OGA enzyme was purchased at OriGene (cat # TP322411). The enzyme was stored in 25 mM Tris.HCl, pH 7.3, 100 mM glycine, 10% glycerol at −20° C. Thiamet G and GlcNAcStatin were tested as reference compounds (Yuzwa et al. 2008 Nature Chemical Biology 4:483; Yuzwa et al. 2012 Nature Chemical Biology 8:393). The assay was performed in 200 mM Citrate/phosphate buffer supplemented with 0.005% Tween-20. 35.6 g Na2HPO42H2O (Sigma, # C0759) were dissolved in 1 L water to obtain a 200 mM solution. 19.2 g citric acid (Merck, #1.06580) was dissolved in 1 L water to obtain a 100 mM solution. pH of the sodiumphosphate solution was adjusted with the citric acid solution to 7.2. The buffer to stop the reaction consists of a 500 mM Carbonate buffer, pH 11.0. 734 mg
FM-GlcNAc were dissolved in 5.48 mL DMSO to obtain a 250 mM solution and was stored at −20° C. OGA was used at a 10 nM (protocol A) or 2 nM (protocol B) concentration and FM-GlcNAc at a 100 uM final concentration. Dilutions were prepared in assay buffer.
50 nl of a compound dissolved in DMSO was dispensed on Black Proxiplate™ 384 Plus Assay plates (Perkin Elmer, #6008269) and 3 μl fl-OGA enzyme mix added subsequently. Plates were pre-incubated for 60 min at room temperature and then 2 μl FM-GlcNAc substrate mix added. […] Plates were briefly centrifuged for 1 min at 1000 rpm and incubate at room temperature for 1 h (10 nM OGA, protocol A) or 6 h (2 nM OGA, protocol B). To stop the reaction 5 μl STOP buffer were added and plates centrifuge again 1 min at 1000 rpm. Fluorescence was quantified in the Thermo Scientific Fluoroskan Ascent or the PerkinElmer EnVision with excitation wavelength 485 nm and emission wavelength 538 nm.
For analysis a best-fit curve is fitted by a minimum sum of squares method. From this an IC50 value and Hill coefficient was obtained. High control (no inhibitor) and low control (saturating concentrations of standard inhibitor) were used to define the minimum and maximum values.

For orientation: Emax means the maximal effect, on the per cent scale that the assay sets. Take `Cc1cc(CC2CCCN(C(C)c3ccc4scnc4c3)C2)cc(C)n1` (racemic) [compound 148]: in test [1], the Emax is 105% and the EC50 was 0.0562 µM. In test [2], the Emax came to 102% and the IC50 was 0.00631 µM.

Turning to `CC(=O)Nc1ncc(CN2CCCC(Nc3ccnc(C)c3)C2)s1` (racemic) [compound 155], in test [1], the Emax is 84.2% and the EC50 was 0.0148 µM. Besides, in test [2], the Emax came to 101% and the IC50 was 0.00603 µM.

In the case of `Cc1cc(NC2CCCN(C(C)c3ccc4nccnc4c3)C2)cc(C)n1` (racemic) [compound 156], in test [1], the Emax came to 89% and the EC50 was 0.468 µM. Besides, in test [2], the Emax turned out to be 97.4% and the IC50 is 0.0437 µM.

For the compound `CC(=O)Nc1ncc(CN2CCC[C@H](Cc3cc(C)nc(C)n3)C2)s1` (single isomer, unassigned) [compound 25], in test [1], the Emax was 97.8% and the EC50 was 0.00977 µM. Further, in test [2], the Emax stood at 101% and the IC50 was 0.00182 µM.

`CC(=O)Nc1ncc(CN2CCC[C@@H](Cc3cc(C)nc(C)n3)C2)s1` (single isomer, unassigned) [compound 26]: in test [1], the Emax was 72.3% and the EC50 was 0.525 µM. Besides, in test [2], the Emax is 99.5% and the IC50 was 0.0269 µM.

Turning to `Cc1cc(CC2CCCN(C(C)c3ccc4sc(C)nc4c3)C2)cc(C)n1` (single isomer, unassigned) [compound 118], in test [1], the “Cellular hOGA; pEC50” value stood at 6.24 and the “Cellular Emax (%)” value turned out to be 62.2%. Besides, in test [2], the Emax is 100% and the IC50 was 0.0468 µM.

For the compound `Cc1cc(CC2CCCN(C(C)c3ccc4sc(C)nc4c3)C2)cc(C)n1` (single isomer, unassigned) [compound 119], in test [1], the “Cellular hOGA; pEC50” value is 7.38 and the “Cellular Emax (%)” value came to 107.3%. Further, in test [2], the “Enzymatic Emax (%)” value came out at 103.7% and the IC50 was 0.00288 µM.

Take `CC(=O)Nc1ncc(CN2CCCC(c3cc(C)nc(C)c3)C2)s1` (single isomer, unassigned) [compound 130]: in test [1], the Emax is 99% and the EC50 is 0.0132 µM. Moreover, in test [2], the Emax turned out to be 103% and the IC50 was 0.00912 µM.

Regarding `CC(=O)Nc1ncc(C(C)N2CCCC(COc3cc(C)nc(C)c3)C2)s1` (single isomer, unassigned) [compound 134], in test [1], the Emax amounted to 79.5% and the EC50 was 0.0525 µM. Moreover, in test [2], the maximal response (Emax) came to 100% and the IC50 was 0.0282 µM.

`CC(=O)Nc1ncc([C@@H](C)N2CCC[C@@H](COc3cc(C)nc(C)c3)C2)s1` (single isomer, unassigned) [compound 135]: in test [1], the “Cellular hOGA; pEC50” value came to 6.3 and the “Cellular Emax (%)” value was 67.9%. In test [2], the maximal response (Emax) stood at 104% and the IC50 is 0.178 µM.

Regarding `CC(=O)Nc1ncc([C@@H](C)N2CCC[C@H](COc3cc(C)nc(C)c3)C2)s1` (single isomer, unassigned) [compound 136], in test [1], the maximal effect (Emax) amounted to 70.6% and the EC50 is 0.479 µM. Further, in test [2], the Emax is 100% and the IC50 was 0.0955 µM.

Regarding `CC(=O)Nc1ncc([C@@H](C)N2CCC[C@@H](COc3cc(C)nc(C)c3)C2)s1` (single isomer, unassigned) [compound 137], in test [1], the “Cellular hOGA; pEC50” value is 8.83 and the “Cellular Emax (%)” value is 94.7%. In addition, in test [2], the “Enzymatic Emax (%)” value is 102.2% and the IC50 was 0.000955 µM.

`CC(=O)Nc1ncc(CN2CCCC(c3ccnc(C)c3)C2)s1` (centres unmarked) [compound 6]: in test [1], the Emax was found to be 98.7% and the EC50 was 0.0275 µM. In test [2], the Emax was determined as 101% and the IC50 is 0.0275 µM.

Regarding `CC(=O)Nc1ncc(CN2CCCC(c3cc(C)nc(C)c3)C2)s1` (centres unmarked) [compound 7], in test [1], the Emax was determined as 98.9% and the EC50 is 0.00891 µM. Moreover, in test [2], the Emax came out at 99.3% and the IC50 was 0.0178 µM.

In the case of `CC(=O)Nc1ncc(CN2CCC[C@H](Nc3cc(C)nc(C)c3)C2)s1` [compound 9], in test [1], the Emax was found to be 102% and the EC50 is 0.0479 µM. Further, in test [2], the Emax was found to be 103% and the IC50 was 0.00372 µM.

As to `Cc1cc(N[C@@H]2CCCN(C(C)c3ccc4nccnc4c3)C2)cc(C)n1` (some centres unmarked) [compound 11], in test [1], the Emax was 65.2% and the EC50 was 4.27 µM. In addition, in test [2], the Emax was 101% and the IC50 is 0.0257 µM.

Turning to `CC(=O)Nc1ncc(CN2CCCC(Oc3cc(C)cc(C)c3)C2)s1` (centres unmarked) [compound 13, reference compound], in test [1], the Emax turned out to be 92.1% and the EC50 is 0.316 µM. In test [2], the Emax is 98.7% and the IC50 is 0.0933 µM.

These data come from patent publication US20200079766A1, “MONOCYCLIC OGA INHIBITOR COMPOUNDS” (Janssen Pharmaceutica NV, priority 2016, published 2020).
